Read-outs that look alike come from different tables or passages of the source.
Columns and labels:
tubulin = conditions: read-out: Tubulin polymerization IC50; as reported in the literature; cited from earlier work
[1] = tested on: tubulin (colchicine site); conditions: as reported in the literature, cited from earlier work
[2] = tested on: MCF-7 human breast cancer cells; assay: Growth of MCF-7 human breast cancer cells; assay type: cell-based; conditions: compared with CA-4

COc1ccc(Sc2cc(OC)c(OC)c(OC)c2)cc1 [Compound 1]
IC50 (tubulin): 1200 ± 100 nM | Inhibition of binding of colchicine, % inhibition ([1]; 1 µM inhibitor): 56 ± 7% | Inhibition of binding of colchicine, % inhibition ([1]; 5 µM inhibitor): 89 ± 1%

COc1ccc(Sc2cc(OC)c(OC)c(OC)c2)cc1[N+](=O)[O-] [Compound 2]
Cytotoxic activity in MCF-7 cells (in words) [2]: inactive

COc1cc(SSc2cc(OC)c(OC)c(OC)c2)cc(OC)c1OC [Compound 8]
Cytotoxic activity in MCF-7 cells (in words) [2]: inactive

COc1ccc([Se]c2ccc(OC)cc2)cc1 [Compound 12]
Cytotoxic activity in MCF-7 cells (in words) [2]: inactive

COc1ccc([Se][Se]c2ccc(OC)cc2)cc1 [Compound 13]
Cytotoxic activity in MCF-7 cells (in words) [2]: inactive

Source: article PMC3774136 (Bioorganic & medicinal chemistry letters, 2013)
